Data published in the supplement of paper PMC10307832.

Assays:
Assay in all cases: relative viability (nuclei count vs DMSO), 5 days (fraction); higher = more cells survive
[1] = compound: COc1cc2ncn(-c3cc(OCc4ccccc4C(F)(F)F)c(C(N)=O)s3)c2cc1OC + Cc1nc(Nc2ncc(C(=O)Nc3c(C)cccc3Cl)s2)cc(N2CCN(CCO)CC2)n1 [Dasatinib] (partner 0.075 µM)
Summary of the method: (§1)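 Lung cancer cell lines were seeded in 1536-well plates and dosed by pin tool the next day, with either a single drug or a fixed anchor-drug dose combined with five library-drug doses (not always all listed) spaced in √10 steps. Five days later, one step fixed the cells and stained their nuclei (final 0.05% Triton X-100, 1% formaldehyde, 1 ug/ml Hoechst), and nuclei were counted on 4× images. Relative viability is the nuclei count in treated wells divided by the count in vehicle wells, and each value is the median of duplicate plates.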

[2] = compound: COc1cc2ncn(-c3cc(OCc4ccccc4C(F)(F)F)c(C(N)=O)s3)c2cc1OC + Cc1cc(Nc2cc(N3CCN(C)CC3)nc(Sc3ccc(NC(=O)C4CC4)cc3)n2)n[nH]1 [Tozasertib] (partner 0.1 µM)
Summary of the method: as §1

[3] = compound: COc1cc2ncn(-c3cc(OCc4ccccc4C(F)(F)F)c(C(N)=O)s3)c2cc1OC + Cc1nc(NC(=O)N2CCC[C@H]2C(N)=O)sc1-c1ccnc(C(C)(C)C(F)(F)F)c1 [Alpelisib] (partner 2 µM)
Summary of the method: as §1

[4] = compound: COc1cc2ncn(-c3cc(OCc4ccccc4C(F)(F)F)c(C(N)=O)s3)c2cc1OC + CCNC(=O)c1noc(-c2cc(C(C)C)c(O)cc2O)c1-c1ccc(CN2CCOCC2)cc1 [Luminespib] (partner 0.01 µM)
Summary of the method: as §1

Cell Line	relative viability ([1]; first compound 0.05 µM)	relative viability ([1]; first compound 0.1581 µM)	relative viability ([1]; first compound 0.5 µM)	relative viability ([1]; first compound 1.581 µM)	relative viability ([1]; first compound 5 µM)	relative viability ([2]; first compound 0.05 µM)	relative viability ([2]; first compound 0.1581 µM)	relative viability ([2]; first compound 0.5 µM)	relative viability ([2]; first compound 1.581 µM)	relative viability ([2]; first compound 5 µM)	relative viability ([3]; first compound 0.05 µM)	relative viability ([3]; first compound 0.1581 µM)	relative viability ([3]; first compound 0.5 µM)	relative viability ([3]; first compound 1.581 µM)	relative viability ([3]; first compound 5 µM)	relative viability ([4]; first compound 0.05 µM)	relative viability ([4]; first compound 0.1581 µM)	relative viability ([4]; first compound 0.5 µM)	relative viability ([4]; first compound 1.581 µM)	relative viability ([4]; first compound 5 µM)
LXF-289	0.225	0.206	0.124	0.037	0.0349	0.192	0.197	0.145	0.129	0.107	0.994	0.801	0.138	0.0881	0.0604	0.42	0.483	0.259	0.0958	0.0607
NCI-H23	0.801	0.636	0.426	0.11	0.0948	0.349	0.269	0.218	0.166	0.13	0.836	0.363	0.326	0.137	0.102	0.211	0.209	0.213	0.206	0.22
NCI-H322M	0.233	0.263	0.268	0.27	0.308	0.492	0.475	0.511	0.547	0.495	0.797	0.847	0.687	0.426	0.336	0.837	1.1	0.759	0.315	0.288
NCI-H522	0.937	0.846	0.814	0.628	0.369	0.481	0.549	0.58	0.536	0.454						1.1	0.899	1.16	0.787	0.737
NCI-H1563	0.51	0.506	0.454	0.44	0.349						0.953	1.02	0.917	0.745	0.599	0.587	0.501	0.513	0.474	0.4
NCI-H1648						0.455	0.371	0.157	0.235	0.182										
NCI-H1650	0.329	0.305	0.268	0.142	0.145	0.304	0.324	0.221	0.225	0.154						0.187	0.187	0.193	0.19	0.185
NCI-H1703											0.3	0.368	0.271	0.142	0.12					
NCI-H1792	0.786	0.757	0.372	0.287	0.25						0.732	0.659	0.501	0.31	0.364	0.509	0.397	0.339	0.208	0.185
NCI-H2342	0.325	0.354	0.279	0.278	0.237	0.611	0.54	0.333	0.334	0.337						0.757	0.752	0.715	0.597	0.545
SW 900	0.545	0.604	0.5	0.328	0.0938	0.685	0.661	0.277	0.253	0.244						0.183	0.165	0.205	0.171	0.16
